What was measured:
human C3a receptor = target: T1, human C3a receptor (Homo sapiens, UniProt Q16581); test: Ca2+-flux assay in HEK293 cells expressing human C3a receptor and GNA16; type: cell-based; details: ligands mouse TLQP-21 1 μM or human C3a recombinant protein 300 nM, Fluo-4, HEK293, FIG. 1
T1 construct: host or cells: HEK293
T1 sequence (Q16581 1-482): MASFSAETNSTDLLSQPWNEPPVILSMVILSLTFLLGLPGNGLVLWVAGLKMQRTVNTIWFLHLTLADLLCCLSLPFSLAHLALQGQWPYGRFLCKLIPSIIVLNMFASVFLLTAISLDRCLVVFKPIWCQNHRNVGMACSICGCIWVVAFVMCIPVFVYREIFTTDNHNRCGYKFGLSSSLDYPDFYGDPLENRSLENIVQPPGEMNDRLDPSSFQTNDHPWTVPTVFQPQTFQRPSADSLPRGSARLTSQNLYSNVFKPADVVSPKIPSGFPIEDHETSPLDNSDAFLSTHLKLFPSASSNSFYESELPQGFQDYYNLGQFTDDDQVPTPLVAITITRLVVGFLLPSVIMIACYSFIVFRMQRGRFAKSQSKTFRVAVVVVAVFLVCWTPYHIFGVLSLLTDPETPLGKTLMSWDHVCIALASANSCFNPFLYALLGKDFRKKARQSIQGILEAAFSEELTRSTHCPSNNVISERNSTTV
Excerpt: Mouse TLQP-21 (Tocris Bioscience, sequence: TLOPPASSRRRHFHHALPPAR, the same applies hereinafter) and human C3a recombinant protein (R&D systems) were used. The solvent was HBSS (Gibco).
The compound 1 (L-arginine, N2-[[5-(diphenylmethyl)-2-thienyl]carbonyl]) synthesized in accordance with a previous report (Rowley, J. A. et al. Journal of Medicinal Chemistry, 2020; 63 (2): 529-541) and ozanimod (Cayman Chemical) were used as C3a receptor antagonists. In the following evaluation, the compound 1 and ozanimod were dissolved in DMSO and diluted with HBSS as appropriate.
Human Embryonic Kidney cells 293 (HEK293) were used, into which the expression vectors necessary for evaluation were introduced according to the following. […]
The cells for evaluating C3a receptor response described above were seeded in a BioCoat (Registered Trademark) Poly-D-Lysine 96-well Black Flat Bottom Microplate (CORNING). […] After 15 minutes, C3a receptor ligand solution (mouse TLQP-21 solution or human C3a recombinant protein solution) was added for C3a receptor stimulation, and the Ca^2+ influx associated with the stimulation was measured over time as intracellular fluorescence intensity (Ex: 480 nm, Em: 540 nm). The value obtained by subtracting the measured value when HBSS was added instead of the C3a receptor ligand solution (blank) was used as the measured value. […]

AD model mice (NC/Nga) [1] = test: Amelioration of pruritus in AD model mice by ozanimod (fur mite-parasitized NC/Nga); type: in vivo, mouse; details: oral, 3 mg/mL suspension at 10 ml/kg; measurement time 22 hours; FIG. 9
Procedure: NC/Nga mice were parasitized with mouse fur mites (M. musculi) to spontaneously generate dermatitis, and were used as an AD model. Fourteen-week-old males having developed dermatitis were used. After one week of acclimation, the back of their necks was shaved and their scratching behavior was measured. The mice were divided into two groups of eight mice each to ensure an equal number of scratching behaviors.
(§1) Ozanimod (Selleck Biotech) was used. Carboxymethyl cellulose (Maruishi Pharmaceutical Co., Ltd.) prepared at 0.5% with water for injection was used as a solvent. The weighed ozanimod was lightly crushed using an agate pestle, and then the solvent dropwise addition and mixing were repeated to obtain a suspension (3 mg/mL). The preparation was done on the day of administration and stored at room temperature until administration.
The dosage (10 ml/kg) was calculated by measuring body weight, and the prepared evaluation samples were administered orally with an oral gavage needle for mice and a disposable syringe.
(§2) MicroAct (Neuroscience) was used to measure the scratching behavior. […] Measurements were made on the day before (before administration) and on the day of administration (after administration) of ozanimod, and the antipruritic effect of ozanimod was evaluated by comparing the number of scratching behaviors before and after administration.

[2] = system: ANIT model mice (C57BL/6J); test: Amelioration of pruritus in model mice of pruritus associated with cholestasis (ANIT model) by ozanimod; type: in vivo, mouse; details: oral, 3 mg/mL suspension at 10 mL/kg; measurement time 22 hours; FIG. 10
Procedure: Shaved male C57BL/6J mice were used. To eight-week-old C57BL/6J mice, α-naphthyl isothiocyanate (ANIT) dissolved in olive oil (FUJIFILM Wako Pure Chemical) was orally administered once daily for 10 days with an oral gavage needle for mice and a disposable syringe. Before administration, body weight was measured to ensure administration at 25 mg/10 mL/kg (ANIT model).
as §1
The dosage (10 mL/kg) was calculated by measuring body weight, and the prepared evaluation samples were administered orally with an oral gavage needle for mice and a disposable syringe.
as §2

AD model mice (NC/Nga) [3] = test: Amelioration of pruritus in AD model mice by C3a receptor antagonist (mite allergen ointment-induced); type: in vivo, mouse; details: 0.5 mg/mL, 200 μL subcutaneously, three times a week; measured for 3 hours after last administration; FIG. 7
Procedure: Seven-week-old female NC/Nga mice were used. Preparation of AD model mice: The back of the neck was shaved, and 100 mg of an ointment containing mite allergen: Biostir AD (Biostir Inc.) was applied to the back of the neck and auricular region under isoflurane anesthesia for initial sensitization. Four days after the first application of the ointment containing mite allergen, 150 μL of 4% (w/v) SDS solution and 100 mg of ointment containing mite allergen were applied to the back of the neck and auricular region under isoflurane anesthesia. Thereafter, the same procedure was performed four times at a frequency of once every 3 to 4 days to induce AD-like dermatitis.
The compound 1, whose C3a receptor antagonism was confirmed in Example 1 above, was used as a C3a receptor antagonist. The compound 1 was dissolved in saline containing 20% polyethylene glycol 400, of which 200 μL was administered subcutaneously to the back of the neck. The control group was administered the same amount of only the above solvent. The concentration of the C3a receptor antagonist solution was set at 0.5 mg/mL. […]
Four days after the last application of the ointment containing mite allergen, the scratching behavior was measured for 3 hours after the last administration of the sample. […]

[4] = system: AEW model mice (C57BL/6J); test: Amelioration of pruritus in AEW model mice by C3a receptor antagonist; type: in vivo, mouse; details: 0.5 mg/mL, 200 μL subcutaneously, once daily for 8 days; measured for 3 hours after last administration; FIG. 8
Excerpt: The animals used were male C57BL/6J mice. Preparation of AEW model: The back of the neck was shaved, and absorbent cotton soaked with a 1:1 (v/v) mixture of acetone and diethyl ether was applied and allowed to stand for 15 seconds. Immediately thereafter, absorbent cotton soaked with water was applied for 30 seconds. This treatment was repeated twice/day (morning and evening) for 7 days.
The compound 1, whose C3a receptor antagonism was confirmed in Example 1 above, was used as a C3a receptor antagonist. The compound 1 was dissolved in saline containing 20% polyethylene glycol 400, of which 200 μL was administered subcutaneously to the back of the neck. The control group was administered the same amount of only the above solvent. The concentration of the C3a receptor antagonist solution was set at 0.5 mg/mL. Sample administration started after the first AEW treatment and was performed at a frequency of once daily for 8 days.
Sixteen hours after the last AEW treatment, the scratching behavior was measured for 3 hours after the last administration of the sample. MicroAct (Neuroscience) was used to measure the scratching behavior.

Row | SMILES | fluorescence intensity due to C3a receptor stimulation by C3a receptor ligands (integrated value vs control = 100%) (human C3a receptor; compound at 10 μM) | scratching behavior (events) after vs before administration (AD model mice (NC/Nga) [1]) | scratching behavior (events) after vs before administration [2] | fluorescence intensity due to C3a receptor stimulation by C3a receptor ligands (integrated value vs control = 100%) (human C3a receptor; compound at 1 μM) | scratching behavior compared to AD model mice administered with solvent alone (AD model mice (NC/Nga) [3]) | scratching behavior compared to AEW model mice administered with solvent alone [4]
1 | CC(C)Oc1ccc(-c2nc(-c3cccc4c3CCC4NCCO)no2)cc1C#N (stereo not drawn) [ozanimod, 5-[3-[1-(2-hydroxyethylamino)-2,3-dihydro-1H-inden-4-yl]-1,2,4-oxadiazol-5-yl]-2-isopropoxybenzonitrile] | suppressed | significant decrease | significant decrease | – | – | –
2 | N=C(N)NCCC[C@H](NC(=O)c1ccc(C(c2ccccc2)c2ccccc2)s1)C(=O)O [compound 1, L-arginine, N2-[[5-(diphenylmethyl)-2-thienyl]carbonyl]] | – | – | – | suppressed | significant decrease | significant decrease
